Measurements reported in the NIST ThermoML archive (doi:10.1021/je400250u).
± gives the expanded uncertainty stated by the source.

Assay: refractive index (Na D-line) (dimensionless); xn = mol fraction of the nth substance listed
Conditions: 298.15 K; 100 kPa; Liquid; Standard Abbe refractometry; x2 = 0

First: CCCCCCCCCC [decane] + C1CC[C@H]2CCCC[C@H]2C1
Second: CCCCCCCCCCC [undecane] + C1CC[C@H]2CCCC[C@@H]2C1
The refractive index of the first is lower: 1.4098 ± 0.0012 for the first, 1.4138 ± 0.0013 for the second.

Compared with `CCCCCCCCC` [nonane] + C1CC[C@H]2CCCC[C@@H]2C1, `CCCCCCCCCCC` [undecane] + C1CC[C@H]2CCCC[C@H]2C1 is higher in refractive index: 1.4026 ± 0.0013 for the first, 1.4138 ± 0.0013 for the second.

With `CCCCCCCCC` [nonane] + C1CC[C@H]2CCCC[C@H]2C1 the refractive index was 1.4026 ± 0.0013.

Same assay, conditions: 298.15 K; 101 kPa; Liquid; Standard Abbe refractometry; x2 = 0

`CCCCCCCCCC` [decane] + C1CC[C@H]2CCCC[C@@H]2C1 showed a refractive index of 1.4098 ± 0.0007.

Same assay, conditions: 308.15 K; 100 kPa; Liquid; Standard Abbe refractometry; x2 = 0

First: CCCCCCCCCC [decane] + C1CC[C@H]2CCCC[C@H]2C1
Second: CCCCCCCCCCC [undecane] + C1CC[C@H]2CCCC[C@@H]2C1
The refractive index of the first is lower: 1.4052 ± 0.0012 for the first, 1.4095 ± 0.0013 for the second.

First: CCCCCCCCC [nonane] + C1CC[C@H]2CCCC[C@@H]2C1
Second: CCCCCCCCCCC [undecane] + C1CC[C@H]2CCCC[C@H]2C1
The refractive index of the first is lower: 1.3983 ± 0.0013 for the first, 1.4095 ± 0.0013 for the second.

In the case of `CCCCCCCCC` [nonane] + C1CC[C@H]2CCCC[C@H]2C1, the refractive index is reported as 1.3983 ± 0.0013.

Same assay, conditions: 308.15 K; 101 kPa; Liquid; Standard Abbe refractometry; x2 = 0

Compound `CCCCCCCCCC` [decane] + C1CC[C@H]2CCCC[C@@H]2C1 has a refractive index of 1.4052 ± 0.0007.

Same assay, conditions: 318.15 K; 100 kPa; Liquid; Standard Abbe refractometry; x2 = 0

Compared with `CCCCCCCCCC` [decane] + C1CC[C@H]2CCCC[C@H]2C1, `CCCCCCCCCCC` [undecane] + C1CC[C@H]2CCCC[C@@H]2C1 is higher in refractive index: 1.4 ± 0.0012 for the first, 1.4058 ± 0.0013 for the second.

Going from `CCCCCCCCC` [nonane] + C1CC[C@H]2CCCC[C@@H]2C1 to `CCCCCCCCCCC` [undecane] + C1CC[C@H]2CCCC[C@H]2C1, the refractive index rises from 1.3937 ± 0.0013 to 1.4058 ± 0.0013.

Compound `CCCCCCCCC` [nonane] + C1CC[C@H]2CCCC[C@H]2C1 has a refractive index of 1.3937 ± 0.0013.

Same assay, conditions: 318.15 K; 101 kPa; Liquid; Standard Abbe refractometry; x2 = 0

For `CCCCCCCCCC` [decane] + C1CC[C@H]2CCCC[C@@H]2C1, the refractive index was 1.4 ± 0.0007.

Assay: refractive index (Na D-line) (dimensionless)
Conditions: 298.15 K; 101.33 kPa; Liquid; Standard Abbe refractometry

Compared with `C1CC[C@H]2CCCC[C@H]2C1` [cis-decahydronaphthalene], `C1CC[C@H]2CCCC[C@@H]2C1` [trans-decahydronaphthalene] is lower in refractive index: 1.4776 ± 0.0013 for the first, 1.4662 ± 0.0012 for the second.

First: CCCCCCCCCC [decane]
Second: CCCCCCCCCCC [undecane]
The refractive index of the first is lower: 1.4098 ± 0.0012 for the first, 1.4138 ± 0.0013 for the second.

Work on `CCCCCCCCC` [nonane] yielded a refractive index of 1.4026 ± 0.0013.

Same assay, conditions: 308.15 K; 101.33 kPa; Liquid; Standard Abbe refractometry

Going from `C1CC[C@H]2CCCC[C@H]2C1` [cis-decahydronaphthalene] to `C1CC[C@H]2CCCC[C@@H]2C1` [trans-decahydronaphthalene], the refractive index falls from 1.4736 ± 0.0013 to 1.4618 ± 0.0012.

Going from `CCCCCCCCCC` [decane] to `CCCCCCCCCCC` [undecane], the refractive index rises from 1.4052 ± 0.0012 to 1.4095 ± 0.0013.

`CCCCCCCCC` [nonane] gave a refractive index of 1.3983 ± 0.0013.

Same assay, conditions: 318.15 K; 101.33 kPa; Liquid; Standard Abbe refractometry

Compared with `C1CC[C@H]2CCCC[C@H]2C1` [cis-decahydronaphthalene], `C1CC[C@H]2CCCC[C@@H]2C1` [trans-decahydronaphthalene] is lower in refractive index: 1.4696 ± 0.0013 for the first, 1.4581 ± 0.0012 for the second.

First: CCCCCCCCCC [decane]
Second: CCCCCCCCCCC [undecane]
The refractive index of the first is lower: 1.4 ± 0.0012 for the first, 1.4058 ± 0.0013 for the second.

`CCCCCCCCC` [nonane] gave a refractive index of 1.3937 ± 0.0013.

Assay: xn = mol fraction of the nth substance listed
Conditions: 293.15 K; 100 kPa; Liquid; Capillary tube (Ostwald / Ubbelohde) method; x2 = 0

First: CCCCCCCCCC [decane] + C1CC[C@H]2CCCC[C@@H]2C1
Second: CCCCCCCCCCC [undecane] + C1CC[C@H]2CCCC[C@@H]2C1
The viscosity of the first is lower: 0.916 ± 0.012 mPa·s for the first, 1.17 ± 0.014 mPa·s for the second.

Compared with `CCCCCCCCCC` [decane] + C1CC[C@H]2CCCC[C@H]2C1, `CCCCCCCCCCC` [undecane] + C1CC[C@H]2CCCC[C@H]2C1 is higher in viscosity: 0.916 ± 0.012 mPa·s for the first, 1.17 ± 0.014 mPa·s for the second.

Work on `CCCCCCCCC` [nonane] + C1CC[C@H]2CCCC[C@@H]2C1 yielded a viscosity of 0.724 ± 0.011 mPa·s.
Work on `CCCCCCCCC` [nonane] + C1CC[C@H]2CCCC[C@H]2C1 yielded a viscosity of 0.724 ± 0.011 mPa·s.

Same assay, conditions: 293.15 K; 100 kPa; Liquid; Vibrating tube method; x2 = 0

Compared with `CCCCCCCCCC` [decane] + C1CC[C@H]2CCCC[C@@H]2C1, `CCCCCCCCCCC` [undecane] + C1CC[C@H]2CCCC[C@@H]2C1 is higher in mass density: 731.14 ± 0.23 kg/m3 for the first, 740.28 ± 0.32 kg/m3 for the second.

Going from `CCCCCCCCCC` [decane] + C1CC[C@H]2CCCC[C@H]2C1 to `CCCCCCCCCCC` [undecane] + C1CC[C@H]2CCCC[C@H]2C1, the mass density rises from 731.14 ± 0.23 kg/m3 to 740.28 ± 0.32 kg/m3.

Compound `CCCCCCCCC` [nonane] + C1CC[C@H]2CCCC[C@@H]2C1 has a mass density of 717.94 ± 0.24 kg/m3.
Work on `CCCCCCCCC` [nonane] + C1CC[C@H]2CCCC[C@H]2C1 yielded a mass density of 717.94 ± 0.24 kg/m3.

Same assay, conditions: 298.15 K; 100 kPa; Liquid; Capillary tube (Ostwald / Ubbelohde) method; x2 = 0

In the case of `CCCCCCCCCC` [decane] + C1CC[C@H]2CCCC[C@@H]2C1, the viscosity is reported as 0.852 ± 0.012 mPa·s.
